{
  "source": "patent US20110136162A1",
  "about": "“Compositions and Methods for Functionalized Patterning of Tissue Engineering Substrates Including Bioprinting Cell-Laden Constructs for Multicompartment Tissue Chambers” (Drexel University, priority 2009, published 2011)",
  "system": "Human hepatocytes (HepG2) and human melanoma cells (M10)",
  "experiment": "Micronuclei in binucleated cells after γ-radiation, cells treated with amifostine",
  "assay_type": "cell-based",
  "conditions": "binucleated cells after 60 hours",
  "experimental": "Human hepatocytes (HepG2) and human melanoma cells (M10) were cultured in α-Minimum Essential Medium (Gibco) at 37° C. in 5% CO2. Cells were mixed with BME (i.e., Basement Membrane Matrix Phenol Red-free (BD Biosciences Matrigel)) chilled to 4° C. and printed onto a glass microfluidic chip having a PDMS substrate (see FIGS. 13 and 14) using a temperature-controlled BME printing apparatus 0-5° C. (see, for example, FIGS. 9 and 10).\nAfter the 4 hour treatment with amifostine, the cells were exposed to 2 Grays of γ-radiation from a cesium source. […] Then, the cells were incubated and allowed to divide for 60 hours and examined for evidence of radiation damage.\nBinucleated cells were examined for the presence of micronuclei as evidence of radiation damage.",
  "data": [
    {"smiles": "NCCCNCCSP(=O)(O)O", "note": "[amifostine]", "values": [
      {"measurement": "radiation-treated cells found to have micronuclei", "setting": "microfluidic chip, 1 mM amifostine perfusion 4 hours before and 90 minutes after 2 Grays γ-radiation", "result": "about 3%"},
      {"measurement": "radiation-treated cells found to have micronuclei", "setting": "tissue culture plate, 1 mM amifostine 4 hours before and 90 minutes after 2 Grays γ-radiation", "result": "about 4%"}
    ]}
  ]
}
